The values that follow come from the Kinase Knowledgebase extract (Sharma et al. 2016).

The structures appear in SMILES notation.

The first test concerns the target CDK2 (human) (UniProt P24941). Put plainly: Enzyme Assay.
Conditions: not given
On to `Nc1nc(NC2CCN(S(=O)(=O)CCCn3cncn3)CC2)sc1C(=O)c1c(F)cccc1F`, for which the Ki stood at 4.4 nM.

The test is the same for the next values; noted with them: concentration not given here.
Take `C=CC(C)C(=O)N1CCC(Nc2nc(N)c(C(=O)c3c(F)cccc3F)s2)CC1` (configuration not stated): the inhibition worked out at 37%.
On the same count and under the same terms, for `Nc1nc(NC2CCN(C(=O)c3ccccc3OC(F)(F)F)CC2)sc1C(=O)c1c(F)cccc1F` the value was -6%.
For the compound `CC(C)=CC(=O)N1CCC(Nc2nc(N)c(C(=O)c3c(F)cccc3F)s2)CC1`, the inhibition was -19%.
The same measure, in the same setting: for `Nc1nc(NC2CCN(C(=O)CCc3cccc(O)c3)CC2)sc1C(=O)c1c(F)cccc1F` the value was 40%; for `Nc1nc(NC2CCN(C(=O)c3ccc4c(c3)CCO4)CC2)sc1C(=O)c1c(F)cccc1F`, 83%; for `CN(C)N=Nc1ccccc1C(=O)N1CCC(Nc2nc(N)c(C(=O)c3c(F)cccc3F)s2)CC1`, 43%.
The same measure, in the same setting: for `Cc1c(F)cccc1C(=O)N1CCC(Nc2nc(N)c(C(=O)c3c(F)cccc3F)s2)CC1` the value was 36%; for `CCN(CC)CCC(=O)N1CCC(Nc2nc(N)c(C(=O)c3c(F)cccc3F)s2)CC1`, 57%.
On to `CCC(O)C(=O)N1CCC(Nc2nc(N)c(C(=O)c3c(F)cccc3F)s2)CC1` (configuration not stated), for which the inhibition amounted to 48%.
On to `COc1ccc(CC(=O)N2CCC(Nc3nc(N)c(C(=O)c4c(F)cccc4F)s3)CC2)cc1OC`, for which the inhibition is 55%.
Same read-out and setting: for `CCOc1cccc(/C=C/C(=O)N2CCC(Nc3nc(N)c(C(=O)c4c(F)cccc4F)s3)CC2)c1` the value was 50%; for `CC1CCCC(C(=O)N2CCC(Nc3nc(N)c(C(=O)c4c(F)cccc4F)s3)CC2)C1` (configuration not stated), 74%; for `CCOc1ccccc1CC(=O)N1CCC(Nc2nc(N)c(C(=O)c3c(F)cccc3F)s2)CC1`, 71%.
For the compound `Nc1nc(NC2CCN(S(=O)(=O)c3ccc(Oc4ccncc4)cc3)CC2)sc1C(=O)c1c(F)cccc1F`, the inhibition was -28%.
Same read-out and setting: for `CC(CC(=O)N1CCC(Nc2nc(N)c(C(=O)c3c(F)cccc3F)s2)CC1)CC(C)(C)C` (configuration not stated) the value was 35%; for `CC(C)c1ccc(CC(=O)N2CCC(Nc3nc(N)c(C(=O)c4c(F)cccc4F)s3)CC2)cc1`, 85%.
Still for that read-out and setting: for `Nc1nc(NC2CCN(C(=O)/C=C/c3cccc(Cl)c3)CC2)sc1C(=O)c1c(F)cccc1F` the value was 24%.
Same read-out and setting: for `Nc1nc(NC2CCN(C(=O)CCC(F)(F)F)CC2)sc1C(=O)c1c(F)cccc1F` the value was 45%; for `Nc1nc(NC2CCN(C(=O)/C=C/c3cc(O)ccc3O)CC2)sc1C(=O)c1c(F)cccc1F`, 80%; for `Nc1nc(NC2CCN(C(=O)c3cccc(F)c3F)CC2)sc1C(=O)c1c(F)cccc1F`, 11%.
As for `Nc1nc(NC2CCN(C(=O)Cc3ccccn3)CC2)sc1C(=O)c1c(F)cccc1F`, the inhibition was determined as 80%.
Take `CCCCc1ccc(C(=O)N2CCC(Nc3nc(N)c(C(=O)c4c(F)cccc4F)s3)CC2)nc1`: the inhibition is -45%.
For `CCCOc1ccc(C(=O)N2CCC(Nc3nc(N)c(C(=O)c4c(F)cccc4F)s3)CC2)cc1`, the inhibition is 77%.
With `CC(Oc1ccc(O)cc1)C(=O)N1CCC(Nc2nc(N)c(C(=O)c3c(F)cccc3F)s2)CC1` (configuration not stated), the inhibition worked out at 18%.
Same read-out and setting: for `C[C@@H](O)CC(=O)N1CCC(Nc2nc(N)c(C(=O)c3c(F)cccc3F)s2)CC1` the value was 72%.
On the same count and under the same terms, for `Nc1nc(NC2CCN(C(=O)CSc3ccccc3F)CC2)sc1C(=O)c1c(F)cccc1F` the value was 75%.
For `Nc1nc(NC2CCN(C(=O)/C=C/c3cccs3)CC2)sc1C(=O)c1c(F)cccc1F`, the inhibition was 43%.
For `Nc1nc(NC2CCN(C(=O)Cc3cccc(F)c3F)CC2)sc1C(=O)c1c(F)cccc1F`, the inhibition turned out to be 57%.
For the compound `CCCCOc1ccc(C(C)(C)CC(C)(C)C)cc1S(=O)(=O)N1CCC(Nc2nc(N)c(C(=O)c3c(F)cccc3F)s2)CC1`, the inhibition is -28%.
The same measure, in the same setting: for `CCCCC(CC)COC(=O)N1CCC(Nc2nc(N)c(C(=O)c3c(F)cccc3F)s2)CC1` (configuration not stated) the value was -42%; for `C=CCC(=O)N1CCC(Nc2nc(N)c(C(=O)c3c(F)cccc3F)s2)CC1`, 15%; for `Nc1nc(NC2CCN(C(=O)/C=C/c3cccc(F)c3)CC2)sc1C(=O)c1c(F)cccc1F`, 70%.
Same read-out and setting: for `Nc1nc(NC2CCN(C(=O)C3(c4ccc(Cl)cc4)CC3)CC2)sc1C(=O)c1c(F)cccc1F` the value was -1%; for `Nc1nc(NC2CCN(C(=O)Cc3ccncc3)CC2)sc1C(=O)c1c(F)cccc1F`, 17%; for `Nc1nc(NC2CCN(C(=O)[C@@H]3CCC(=O)O3)CC2)sc1C(=O)c1c(F)cccc1F`, 95%.
Same read-out and setting: for `Nc1nc(NC2CCN(C(=O)Cc3ccccc3O)CC2)sc1C(=O)c1c(F)cccc1F` the value was 48%; for `CC1(CCC(=O)N2CCC(Nc3nc(N)c(C(=O)c4c(F)cccc4F)s3)CC2)SCCS1`, 78%; for `CC(C)c1cc(C(C)C)c(S(=O)(=O)N2CCC(Nc3nc(N)c(C(=O)c4c(F)cccc4F)s3)CC2)c(C(C)C)c1`, -17%.
For the compound `CC(=O)Nc1cc(C(=O)N2CCC(Nc3nc(N)c(C(=O)c4c(F)cccc4F)s3)CC2)ccc1C`, the inhibition was determined as 64%.
Still for that read-out and setting: for `CC(C)C[C@H](O)C(=O)N1CCC(Nc2nc(N)c(C(=O)c3c(F)cccc3F)s2)CC1` the value was 70%; for `CC(=O)Oc1cccc(C(=O)N2CCC(Nc3nc(N)c(C(=O)c4c(F)cccc4F)s3)CC2)c1`, 56%; for `CCCCC[C@H]1CC[C@H](C(=O)N2CCC(Nc3nc(N)c(C(=O)c4c(F)cccc4F)s3)CC2)CC1`, 14%.
In the case of `Nc1nc(NC2CCN(C(=O)/C(F)=C/c3ccccc3)CC2)sc1C(=O)c1c(F)cccc1F`, the inhibition was determined as 64%.
On the same count and under the same terms, for `COc1ccc(C(O)C(=O)N2CCC(Nc3nc(N)c(C(=O)c4c(F)cccc4F)s3)CC2)cc1` (configuration not stated) the value was 58%; for `Nc1nc(NC2CCN(C(=O)[C@@H](O)C3CCCCC3)CC2)sc1C(=O)c1c(F)cccc1F`, 51%.
As to `Nc1nc(NC2CCN(C(=O)C(O)c3ccccc3Cl)CC2)sc1C(=O)c1c(F)cccc1F` (configuration not stated), the inhibition amounted to 51%.
On the same count and under the same terms, for `Nc1nc(NC2CCN(C(=O)N3CCCC3)CC2)sc1C(=O)c1c(F)cccc1F` the value was -10%.
On the same count and under the same terms, for `CCCCCCC(=O)N1CCC(Nc2nc(N)c(C(=O)c3c(F)cccc3F)s2)CC1` the value was 59%; for `Cc1cccc(Cl)c1C(=O)N1CCC(Nc2nc(N)c(C(=O)c3c(F)cccc3F)s2)CC1`, 47%; for `Cc1ccc(C(=O)N2CCC(Nc3nc(N)c(C(=O)c4c(F)cccc4F)s3)CC2)cn1`, 20%.
In the case of `Nc1cc(C(=O)N2CCC(Nc3nc(N)c(C(=O)c4c(F)cccc4F)s3)CC2)ccc1Cl`, the inhibition came to 50%.
On to `Nc1nc(NC2CCN(C(=O)Cc3cc(F)c(F)c(F)c3)CC2)sc1C(=O)c1c(F)cccc1F`, for which the inhibition was 57%.
In the case of `Nc1nc(NC2CCN(C(=O)COc3cc(Cl)c(Cl)cc3Cl)CC2)sc1C(=O)c1c(F)cccc1F`, the inhibition was -10%.
In the case of `Nc1nc(NC2CCN(C(=O)C(=O)c3c[nH]c4ccccc34)CC2)sc1C(=O)c1c(F)cccc1F`, the inhibition was -31%.
Same read-out and setting: for `Nc1nc(NC2CCN(C(=O)CCC(=O)c3ccccc3)CC2)sc1C(=O)c1c(F)cccc1F` the value was 5%; for `CS(=O)(=O)CC(=O)N1CCC(Nc2nc(N)c(C(=O)c3c(F)cccc3F)s2)CC1`, 45%.

In general, Ki refers to a measure of affinity in units of concentration, obtained from inhibition or displacement. Higher therefore signals a looser hold on the target. As a reminder, the inhibition is the drop in the measured response relative to a control, in per cent.
